Reference: US10130693B2, “Peptides, combination of peptides and scaffolds for use in immunotherapeutic treatment of various cancers” (Immatics Biotechnologies GmbH, priority 2015, dated 2018)

Legend:
[1] = tested on: CD8+ T cells; assay: In vitro immunogenicity: T-cell priming with aAPCs loaded with HLA-A*24 peptide/MHC and anti-CD28, multimer staining; format: cell-based, human; settings: HLA-A*24 peptides
Description: CD8+ T cells were primed using artificial APCs coated with anti-CD28 mAb and HLA-A*24 in complex with SEQ ID NO: 99 peptide (FIG. 5A, left panel), SEQ ID NO: 119 peptide (FIG. 5B, left panel), SEQ ID NO: 142 peptide (FIG. 5C, left panel) and SEQ ID NO: 174 peptide FIG. 5 (D, left panel), respectively. After three cycles of stimulation, the detection of peptide-reactive cells was performed by 2D multimer staining with A*24/SEQ ID NO: 99 (FIG. 5A), A*24/SEQ ID NO: 119 (FIG. 5B), A*24/SEQ ID NO: 142 (FIG. 5C) or A*24/SEQ ID NO: 174 (FIG. 5D). Right panels (FIGS. 5A,5B,5C and 5D) show control staining of cells stimulated with irrelevant A*24/peptide complexes. Viable singlet cells were gated for CD8+ lymphocytes. Boolean gates helped excluding false-positive events detected with multimers specific for different peptides. Frequencies of specific multimer+ cells among CD8+ lymphocytes are indicated.
Generation of pMHC/anti-CD28 coated beads, T-cell stimulations and readout was performed in a highly defined in vitro system using four different pMHC molecules per stimulation condition and 8 different pMHC molecules per readout condition.
The purified co-stimulatory mouse IgG2a anti human CD28 Ab 9.3 (Jung et al., 1987) was chemically biotinylated using Sulfo-N-hydroxysuccinimidobiotin as recommended by the manufacturer (Perbio, Bonn, Germany). Beads used were 5.6 μm diameter streptavidin coated polystyrene particles (Bangs Laboratories, Illinois, USA).
800.000 beads/200 μl were coated in 96-well plates in the presence of 4×12.5 ng different biotin-pMHC, washed and 600 ng biotin anti-CD28 were added subsequently in a volume of 200 μl. Stimulations were initiated in 96-well plates by co-incubating 1×10^6 CD8+ T cells with 2×10^5 washed coated beads in 200 μl TCM supplemented with 5 ng/ml IL-12 (PromoCell) for 3 days at 37° C. Half of the medium was then exchanged by fresh TCM supplemented with 80 U/ml IL-2 and incubating was continued for 4 days at 37° C. This stimulation cycle was performed for a total of three times. For the pMHC multimer readout using 8 different pMHC molecules per condition, a two-dimensional combinatorial coding approach was used as previously described (Andersen et al., 2012) with minor modifications encompassing coupling to 5 different fluorochromes. Finally, multimeric analyses were performed by staining the cells with Live/dead near IR dye (Invitrogen, Karlsruhe, Germany), CD8-FITC antibody clone SK1 (BD, Heidelberg, Germany) and fluorescent pMHC multimers. For analysis, a BD LSRII SORP cytometer equipped with appropriate lasers and filters was used. Peptide specific cells were calculated as percentage of total CD8+ cells. Evaluation of multimeric analysis was done using the FlowJo software (Tree Star, Oregon, USA). In vitro priming of specific multimer+CD8+ lymphocytes was detected by comparing to negative control stimulations.

[2] = tested on: HLA-A*24; assay: MHC binding assay, UV-ligand exchange with beta2m ELISA (exchange yield), HLA-A*24; design: species or system human; settings: binding to HLA-A*24, UV-ligand exchange
In short: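 Peptide–MHC complexes formed by UV-ligand exchange: a UV-cleavable peptide is replaced by the test peptide, and only binders keep the complex stable. Exchange yield read by streptavidin-capture ELISA on reactions diluted 100-fold, detected with HRP anti-β2m (2 ug/ml, 1 h, 37° C) and TMB at 450 nm.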

Row | Peptide exchange (MHC class I binding score, peptide exchange yield) [2] | Substance | in vitro immunogenicity, Wells positive [%] [1]
1 | ++++ (>=75% = ++++) | 356 (NYMPGQLTI; listed as Homo sapiens) [compound 356] | + (<20% = +)
2 | ++++ (>=75% = ++++) | 137 (EYLHNCSYF; listed as Homo sapiens) [compound 137] | + (<20% = +)
3 | +++ (50%-75% = +++) | 142 (VYVDDIYVI; listed as Homo sapiens) [compound 142] | ++++ (>=70% = ++++)
4 | +++ (50%-75% = +++) | 174 (VYEKNGYIYF; listed as Homo sapiens) [compound 174] | ++++ (>=70% = ++++)
5 | +++ (50%-75% = +++) | 177 (VYFKAGLDVF; listed as Homo sapiens) [compound 177] | + (<20% = +)
6 | +++ (50%-75% = +++) | 164 (HYVPATKVF; listed as Homo sapiens) [compound 164] | + (<20% = +)
7 | +++ (50%-75% = +++) | 161 (KYPDIVQQF; listed as Homo sapiens) [compound 161] | + (<20% = +)
8 | +++ (50%-75% = +++) | 350 (KYGNFIDKL; listed as Homo sapiens) [compound 350] | +++ (50%-69% = +++)
9 | +++ (50%-75% = +++) | 190 (LYSELTETL; listed as Homo sapiens) [compound 190] | ++++ (>=70% = ++++)
10 | ++++ (>=75% = ++++) | 163 (RYLTISNLQF; listed as Homo sapiens) [compound 163] | + (<20% = +)
11 | +++ (50%-75% = +++) | 139 (IFGIFPNQF; listed as Homo sapiens) [compound 139] | ++ (20%-49% = ++)
12 | ++++ (>=75% = ++++) | 140 (RYLINSYDF; listed as Homo sapiens) [compound 140] | +++ (50%-69% = +++)
13 | +++ (50%-75% = +++) | 160 (RYGDGGSSF; listed as Homo sapiens) [compound 160] | + (<20% = +)
14 | ++++ (>=75% = ++++) | 104 (SYLTWHQQI; listed as Homo sapiens) [compound 104] | + (<20% = +)
15 | ++++ (>=75% = ++++) | 359 (NYGVLHVTF; listed as Homo sapiens) [compound 359] | + (<20% = +)
16 | ++++ (>=75% = ++++) | 114 (QYLDGTWSL; listed as Homo sapiens) [compound 114] | +++ (50%-69% = +++)
17 | +++ (50%-75% = +++) | 122 (EYQARIPEF; listed as Homo sapiens) [compound 122] | ++ (20%-49% = ++)
18 | +++ (50%-75% = +++) | 111 (VYVQILQKL; listed as Homo sapiens) [compound 111] | + (<20% = +)
19 | ++ (20%-49% = ++) | 371 (AYSHLRYVF; listed as Homo sapiens) [compound 371] | ++ (20%-49% = ++)
20 | ++ (20%-49% = ++) | 367 (LYQDHMQYI; listed as Homo sapiens) [compound 367] | ++ (20%-49% = ++)
21 | +++ (50%-75% = +++) | 110 (SYPKIIEEF; listed as Homo sapiens) [compound 110] | ++ (20%-49% = ++)
22 | +++ (50%-75% = +++) | 354 (VYNEQIRDLL; listed as Homo sapiens) [compound 354] | + (<20% = +)
23 | +++ (50%-75% = +++) | 277 (FYTFPFQQL; listed as Homo sapiens) [compound 277] | +++ (50%-69% = +++)
24 | +++ (50%-75% = +++) | 360 (VFSPDGHLF; listed as Homo sapiens) [compound 360] | ++ (20%-49% = ++)
25 | +++ (50%-75% = +++) | 351 (IFHEVPLKF; listed as Homo sapiens) [compound 351] | ++ (20%-49% = ++)
26 | ++++ (>=75% = ++++) | 96 (YYTQYSQTI; listed as Homo sapiens) [compound 96] | + (<20% = +)
27 | +++ (50%-75% = +++) | 105 (IYNETITDLL; listed as Homo sapiens) [compound 105] | + (<20% = +)
